From patent US20230165798A1, “MACROCYCLIC LACTONE FORMULATIONS, METHODS OF THEIR PREPARATION AND USE OF THE FORMULATIONS IN TREATING PATHOLOGIES SECONDARY TO OPHTHALMIC PARASITES” (Hovione Scientia, priority 2018, published 2023)

Columns and labels:
[1] = XRPD polymorphic form before and after Gamma irradiation; assay type: physicochemical
Procedure: (§1) The solid-state characterization of the spray dried amorphous ivermectin solid dispersions of Examples 1-3 prepared by the traditional spray drying process were evaluated by Scanning Electronic Microscopy (SEM) (Phenom ProX SEM), Differential Scanning calorimetry (DSC) (TA Instruments), Laser diffraction (Sympatec HELOS/RODOS, Germany) employing the rotary feeder and R1 lens, X-Ray Powder Diffraction (Pan Analytical), Raman Spectroscopy (Witec) and High Performance Liquid Chromatography (Waters). FIG. 1 is a scanning electron microscopic picture of the amorphous solid dispersion of Example 1 (ivermectin and PVP-VA-64). FIG. 2 is a scanning electron microscopic image of the amorphous solid dispersion of Example 2 (ivermectin and PVP K-30). FIG. 3 is a scanning electron microscopic picture of the amorphous solid dispersion of Example 3 (ivermectin and HPMC E4M). FIGS. 1-3 are at a magnification of 6000×. FIGS. 4-6 are thermograms of the ASD of Examples 1-3 obtained by differential scanning calorimetry. FIGS. 7-9 are diffractograms of the ASD of Examples 1-3. […] FIGS. 10 and 11 are Raman spectrums for ivermectin, the polymer PVP VA-64 and mixtures of the two (FIG. 10) and ivermectin, the polymer PVP K-30 and mixtures of the two (FIG. 11). […] FIG. 10 includes ratios of ivermectin to PVP VA-64 at ratios of 1:1 and 1:2 and FIG. 11 includes ratios of ivermectin to PVP K-30 at ratios of 1:1, 1:3, and 2:3.
The inventors have also determined that use of the polymer in the amorphous solid dispersion of ivermectin protects the ivermectin from degradation that occurs during Gamma irradiation, heat sterilization or e-beam sterilization. Ophthalmic formulations must be sterilized and Gamma irradiation, heat sterilization or e-beam sterilization are suitable methods for sterilization because other methods, such as filtration, are not suitable for a suspension formulation. […] The ASDs were analyzed by XRPD and HPLC to determine if the Gamma irradiation changed the ivermectin polymorphic form and degradation respectively. […]

[2] = tested on: demodex; details: oral ivermectin, 19 subjects, cited from earlier work
[3] = tested on: TNF-α, IL-1, and IL-6 (lipopolysaccharide (LPS)-induced cytokines); details: through NF-κB; cited from earlier work
[4] = HPLC assay of ivermectin before and after Gamma irradiation; assay type: physicochemical
Text: The inventors have also determined that use of the polymer in the amorphous solid dispersion of ivermectin protects the ivermectin from degradation that occurs during Gamma irradiation, heat sterilization or e-beam sterilization. Ophthalmic formulations must be sterilized and Gamma irradiation, heat sterilization or e-beam sterilization are suitable methods for sterilization because other methods, such as filtration, are not suitable for a suspension formulation. The amorphous solid dispersions for Examples 1-3 were tested to determine the extent that the polymer protects the ivermectin during Gamma irradiation. For preliminary tests, the amorphous ivermectin solid dispersions were sterilized by Gamma irradiation at 25 kGy for 22 hours in a Precisa 22 equipment. The ASDs were analyzed by XRPD and HPLC to determine if the Gamma irradiation changed the ivermectin polymorphic form and degradation respectively.
The assay of the ivermectin on the amorphous solid dispersion was performed before, 1 week and 1 month after the application of Gamma irradiation. Preliminary trials of sterilization by gamma irradiation were successfully completed in the solid material of ivermectin alone and ASDs.
(§2) Table 4 provides a summary of the characterizations (HPLC, XRPD and particle size) of ivermectin and of the amorphous solid dispersion of Example 1 (PVP-VA 64), Example 2 (PVP K-30) and Example 3 (HPMC E4M) prior to irradiation and after irradiation. Preliminary trials of sterilization by gamma irradiation were successfully completed in the solid material of ivermectin alone and ASDs. The amorphous form of the ASDs was not affected by gamma irradiation.

[5] = Particle size D90 by laser diffraction before and after Gamma irradiation; assay type: physicochemical
Procedure: as §1, §2

[6] = Visual solubility in artificial sebum; assay type: physicochemical; details: 24 h of mixing with a magnetic stirrer at room temperature, same amount of ivermectin
Procedure: Some polymers have a capacity to improve the solubility of the ivermectin in the local region of application.
The sebum with the amorphous ivermectin dispersions remains clear (solubilized) after 24 h of mixing with a magnetic stirrer at room temperature, and without polymers the sebum continued opaque (ivermectin in suspension—not solubilized) after the addiction of the both forms of ivermectin (crystalline or amorphous).

Compound	XRPD After irradiation (T = 1 month) ([1]; 1 month after Gamma irradiation)	XRPD After irradiation (T = 1 week) ([1]; 1 week after Gamma irradiation)	XRPD Before irradiation ([1]; before irradiation)	Eradication of the demodex ([2]; by month 3 of treatment)	Improvement in signs of ocular inflammation [2]	Symptomatic improvement [2]	Change in TNF-α, IL-1, and IL-6 [3]	% API (After: 1 month) ([4]; HPLC, 1 month after Gamma irradiation at 25 kGy for 22 hours) [%]	% API (After: 1 week) ([4]; HPLC, 1 week after Gamma irradiation at 25 kGy for 22 hours) [%]	% API (Before) ([4]; HPLC, before Gamma irradiation) [%]	HPLC (Assay IVM) After irradiation (T = 1 month) ([4]; Table 4, 1 month after Gamma irradiation) [%]	HPLC (Assay IVM) After irradiation (T = 1 week) ([4]; Table 4, 1 week after Gamma irradiation) [%]	HPLC (Assay IVM) Before irradiation ([4]; Table 4, before irradiation) [%]	% API degraded ([4]; before vs 1 month after Gamma irradiation) [%]	D90 After irradiation (T = 1 week) ([5]; 1 week after Gamma irradiation) [μm]	D90 After irradiation (2 M) ([5]; after Gamma irradiation, cells marked (2 M) in the T = 1 month column)	D90 Before irradiation ([5]; before irradiation) [μm]	Solubility (visual inspection) [6]
CC[C@H](C)[C@H]1O[C@]2(CC[C@@H]1C)C[C@@H]1C[C@@H](C/C=C(\C)[C@@H](O[C@H]3C[C@H](OC)[C@@H](O[C@H]4C[C@H](OC)[C@@H](O)[C@H](C)O4)[C@H](C)O3)[C@@H](C)/C=C/C=C3\CO[C@@H]4[C@H](O)C(C)=C[C@@H](C(=O)O1)[C@]34O)O2 [IVM, ivermectin]	Amorphous	Amorphous	Amorphous	All subjects had eradication of the demodex	all subjects had an improvement	All but two subjects improved symptomatically	decrease	84.3	86.9	95.2	84.26	86.9	95.2	10.9	2.53	2.41 (2 M) μm	2.66	–
ivermectin [Crystalline ivermectin]	–	–	–	–	–	–	–	–	–	–	–	–	–	–	–	–	–	opaque
